# Laboratory results from patent US20250032484A1, “THERAPEUTIC TARGETS AND AGENTS FOR THE TREATMENT OF POSTTRAUMATIC STRESS DISORDER” (priority 2021, published 2025).
# Columns and labels:
# [1] = tested on: VA patients with PTSD (PTSD symptoms, PTSD Checklist); assay: TreeScan nested case-control study of medications associated with PTSD symptom improvement (PTSD Checklist) in VA records; type: in vivo, human
# Protocol: Study Sample and Data Sources. A nested case-control study was conducted within a previously established retrospective cohort that included all VA users with a clinical diagnosis of PTSD (International Classification of Diseases [ICD]-9:309.81, ICD-10: F43.1x) from Oct. 1, 1999 through Sep. 30, 2019 (Shiner et al. (2021) J Eval Clin Pract.). The data source contains information on services use, clinical diagnoses, filled prescriptions, and patient-reported outcome measures (PROMs) for PTSD using the PTSD Checklist (PCL) for these patients. This study was approved by the Veterans Institutional Review Board of Northern New England.
# The goal of the current study was to evaluate any filled medications associated with PTSD symptom improvement, and as such, the analytic sample for this study included only patients with PROMs that were at least 30 days apart. 30 days was selected to allow for medications to be taken for at least one full course (typically 28 days). Patients with PROMs more than 365 days apart were excluded as these are unlikely to provide an accurate assessment of PTSD symptom change between the two time points. For patients who had two overlapping PROM intervals, those closest to 84 days in length were chosen to emulate typical PTSD medication efficacy trials (Watts et al. (2013) J Clin Psychiatry. 74: e541-550). When a patient had two or more overlapping intervals at exactly 84 days, the historically earliest interval was chosen. If patients had multiple non-overlapping intervals, all were included. Patients who met the selection criteria for PTSD in the original cohort and had at least one PROM pair where they started a new medication (defined below) constituted the overall analytic sample for the current study.
# PTSD Improvement Cases and No Improvement Controls. In order to maximize the number of patients with available symptomatic measurement, two different versions of a PROM for PTSD were integrated into a single dataset (Shiner et al. (2021) J Eval Clin Pract.). The two PROMs were the PCL versions aligned to the Diagnostic and Statistical Manual of Mental Disorders (DSM), version IV and Version 5 (APA (2000): Diagnostic and Statistical Manual of Mental Disorders. 4th Edition. Text Revision: DSM-IV-TR. Arlington, VA: American Psychiatric Association: APA (2013): Diagnostic and Statistical Manual of Mental Disorders: Fifth Edition (DSM-5). Washington, D.C.: American Psychiatric Association), which will heretofore be called the PCL-IV and the PCL-5 (Blevins et al. (2015) J Trauma Stress. 28:489-498: Weathers et al. (1993) Trauma. Coping. and Adaptation. San Antonio, Texas: International Society for Traumatic Stress Studies, 9th Annual Meeting). […] A validated crosswalk (ICC=0.96) was used to convert all values to PCL-5 scoring (Moshier et al. (Under review): An empirical crosswalk for the PTSD Checklist: Translating DSM-IV to DSM-5). PTSD improvement cases were defined by a clinically meaningful improvement, which was a decrease of 15 points or more between assessment points (Lee et al. (2019) Reliable Change Index and Clinically Significant Margins for the CAPS-5 and PCL-5 among Veterans. Boston, MA: International Society for Traumatic Stress Studies, 35th Annual Meeting). […] Thus, the no PTSD improvement control group was defined as worsening of symptoms or reductions of up to 7 points on the PCL. Improvements between 8 and 14 points were of uncertain clinical significance and were therefore excluded.
# Identification and Classification of New Medications. The predictors of interest were initiation of medications for any indication. Candidate agents included those that were started in the interval between PCL pairs and continued for at least a 28-day supply. When patients started multiple medications between a given PCL pair, they contributed information for each of the medications in the tree.
# [2] = FDA clinical review NDA 209394; cited from earlier work
# [3] = baseline PCL 38 or higher, PTSD diagnosis within 30 days, without any concurrent evidence-based treatment
# [4] = baseline PCL score of 38 or higher and PTSD diagnosis within 30 days
# [5] = overall sample without any concurrent evidence-based treatment
substance,measurement,setting,value
glecaprevir,EXP = Expected Cases,[1]; all patients in the overall sample,16
same,EXP = Expected Cases,[1]; [3],4
same,O:E = Observed Cases over Expected Cases,[1]; [3],3.52
same,OBS = Observed Cases,[1]; [3],14
same,EXP = Expected Cases,[1]; [4],14
same,O:E = Observed Cases over Expected Cases,[1]; [4],2.21
same,OBS = Observed Cases,[1]; [4],30
same,OBS = Observed Cases,"[1]; case = improved by 15 or more points on PTSD Checklist, all patients in the overall sample",33
same,O:E = Observed Cases over Expected Cases,"[1]; improvement in PTSD, all patients in the overall sample",2.09
same,O:E = Observed Cases over Expected Cases,"[1]; improvement in PTSD, all patients in the overall sample, listed as glecaprevir",2.09
same,EXP = Expected Cases,[1]; [5],5
same,O:E = Observed Cases over Expected Cases,[1]; [5],3.09
same,OBS = Observed Cases,[1]; [5],14
same,BBB permeability,[2],poor BBB permeability
